Test results: PubChem BioAssay AID2060622 (Molecular Pharmacology Branch, DTP, NCI, 2025)

Tested on: 242566-281-R-J2-PDC complex spheroid viability
Experiment: Anticancer human tumor 242566-281-R-J2-PDC patient-derived pancreatic carcinoma cell line growth inhibition [CLK]
Settings: for IC50: curve of first compound; for viability, T/C: stronger effect = lower value
Method in brief: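 Patient-derived tumor cells grown as complex spheroids with HUVEC endothelial cells and mesenchymal stem cells, treated with drug combinations. Concentrations descend in half-log steps from near clinical Cmax, or from 10 microM if Cmax unknown.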

[1] = second compound 0.0316 µM, first compound 0.0316 µM
[2] = second compound 0.0316 µM, first compound 0.1 µM
[3] = second compound 0.0316 µM, first compound 0.316 µM
[4] = second compound 0.0316 µM, first compound 1 µM
[5] = second compound 0.0316 µM, first compound 3.16 µM
[6] = second compound 0.0316 µM, first compound 10 µM
[7] = second compound 0.1 µM, first compound 0.0316 µM
[8] = second compound 0.1 µM, first compound 0.1 µM
[9] = second compound 0.1 µM, first compound 0.316 µM
[10] = second compound 0.1 µM, first compound 1 µM
[11] = second compound 0.1 µM, first compound 3.16 µM
[12] = second compound 0.1 µM, first compound 10 µM
[13] = second compound 0.316 µM, first compound 0.0316 µM
[14] = second compound 0.316 µM, first compound 0.1 µM
[15] = second compound 0.316 µM, first compound 0.316 µM
[16] = second compound 0.316 µM, first compound 1 µM
[17] = second compound 0.316 µM, first compound 3.16 µM
[18] = second compound 0.316 µM, first compound 10 µM
[19] = second compound 1 µM, first compound 0.0316 µM
[20] = second compound 1 µM, first compound 0.1 µM
[21] = second compound 1 µM, first compound 0.316 µM
[22] = second compound 1 µM, first compound 1 µM
[23] = second compound 1 µM, first compound 3.16 µM
[24] = second compound 1 µM, first compound 10 µM
[25] = second compound 3.16 µM, first compound 0.0316 µM
[26] = second compound 3.16 µM, first compound 0.1 µM
[27] = second compound 3.16 µM, first compound 0.316 µM
[28] = second compound 3.16 µM, first compound 1 µM
[29] = second compound 3.16 µM, first compound 3.16 µM
[30] = second compound 3.16 µM, first compound 10 µM
[31] = second compound 10 µM, first compound 0.0316 µM
[32] = second compound 10 µM, first compound 0.1 µM
[33] = second compound 10 µM, first compound 0.316 µM
[34] = second compound 10 µM, first compound 1 µM
[35] = second compound 10 µM, first compound 3.16 µM
[36] = second compound 10 µM, first compound 10 µM
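Also: spheroids exposed to compounds for 7 days before readout.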
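For viability, T/C in this document: 100% = DMSO vehicle control wells.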

SMILES: CC(=O)O[C@H]1C(=O)[C@@]2(C)[C@H]([C@H](OC(=O)c3ccccc3)[C@]3(O)C[C@H](OC(=O)[C@H](O)[C@@H](NC(=O)c4ccccc4)c4ccccc4)C(C)=C1C3(C)C)[C@]1(OC(C)=O)CO[C@@H]1C[C@@H]2O + CNC(=O)c1ccc(Nc2nc(OC3CCCC3)c3c(-c4ccc5nc(C)oc5c4)c[nH]c3n2)c(OC)c1
- IC50 (second compound 0.0316 µM): < 31.6 nM
- IC50 (second compound 0.1 µM): > 10000 nM
- IC50 (second compound 0.316 µM): > 10000 nM
- IC50 (second compound 1 µM): > 10000 nM
- IC50 (second compound 3.16 µM): < 31.6 nM
- IC50 (second compound 10 µM): < 31.6 nM
- viability, T/C [1]: 61%
- viability, T/C [2]: 47.7%
- viability, T/C [3]: 42%
- viability, T/C [4]: 41.7%
- viability, T/C [5]: 46%
- viability, T/C [6]: 72.3%
- viability, T/C [7]: 84.7%
- viability, T/C [8]: 66.2%
- viability, T/C [9]: 53.2%
- viability, T/C [10]: 61.9%
- viability, T/C [11]: 70.7%
- viability, T/C [12]: 108%
- viability, T/C [13]: 91.7%
- viability, T/C [14]: 95%
- viability, T/C [15]: 86.2%
- viability, T/C [16]: 92%
- viability, T/C [17]: 115%
- viability, T/C [18]: 94.6%
- viability, T/C [19]: 62.3%
- viability, T/C [20]: 56.6%
- viability, T/C [21]: 52.2%
- viability, T/C [22]: 51.6%
- viability, T/C [23]: 50.7%
- viability, T/C [24]: 56.2%
- viability, T/C [25]: 51%
- viability, T/C [26]: 40.9%
- viability, T/C [27]: 43.1%
- viability, T/C [28]: 45.2%
- viability, T/C [29]: 46.3%
- viability, T/C [30]: 43%
- viability, T/C [31]: 43%
- viability, T/C [32]: 36.4%
- viability, T/C [33]: 43.7%
- viability, T/C [34]: 46.2%
- viability, T/C [35]: 43.4%
- viability, T/C [36]: 44.8%

SMILES: CCc1c2c(nc3ccc(O)cc13)-c1cc3c(c(=O)n1C2)COC(=O)[C@]3(O)CC + CNC(=O)c1ccc(Nc2nc(OC3CCCC3)c3c(-c4ccc5nc(C)oc5c4)c[nH]c3n2)c(OC)c1
- IC50 (second compound 0.0316 µM): 19.6 nM
- IC50 (second compound 0.1 µM): 12.6 nM
- IC50 (second compound 0.316 µM): 5.05 nM
- IC50 (second compound 1 µM): < 3.16 nM
- IC50 (second compound 3.16 µM): < 3.16 nM
- IC50 (second compound 10 µM): < 3.16 nM
- viability, T/C (second compound 0.0316 µM, first compound 0.00316 µM): 93.6%
- viability, T/C (second compound 0.0316 µM, first compound 0.01 µM): 70.8%
- viability, T/C [1]: 35.2%
- viability, T/C [2]: 12.7%
- viability, T/C [3]: 5.19%
- viability, T/C [4]: 1.82%
- viability, T/C (second compound 0.1 µM, first compound 0.00316 µM): 76%
- viability, T/C (second compound 0.1 µM, first compound 0.01 µM): 58.4%
- viability, T/C [7]: 17.6%
- viability, T/C [8]: 8.93%
- viability, T/C [9]: 5.07%
- viability, T/C [10]: 2.28%
- viability, T/C (second compound 0.316 µM, first compound 0.00316 µM): 69.5%
- viability, T/C (second compound 0.316 µM, first compound 0.01 µM): 21.2%
- viability, T/C [13]: 8.24%
- viability, T/C [14]: 5.13%
- viability, T/C [15]: 3.51%
- viability, T/C [16]: 3.02%
- viability, T/C (second compound 1 µM, first compound 0.00316 µM): 29.4%
- viability, T/C (second compound 1 µM, first compound 0.01 µM): 9.85%
- viability, T/C [19]: 4.94%
- viability, T/C [20]: 3.94%
- viability, T/C [21]: 3.17%
- viability, T/C [22]: 2.15%
- viability, T/C (second compound 3.16 µM, first compound 0.00316 µM): 23%
- viability, T/C (second compound 3.16 µM, first compound 0.01 µM): 7.75%
- viability, T/C [25]: 4.05%
- viability, T/C [26]: 3.95%
- viability, T/C [27]: 3.63%
- viability, T/C [28]: 1.54%
- viability, T/C (second compound 10 µM, first compound 0.00316 µM): 18.5%
- viability, T/C (second compound 10 µM, first compound 0.01 µM): 7.14%
- viability, T/C [31]: 4.31%
- viability, T/C [32]: 3.19%
- viability, T/C [33]: 3.1%
- viability, T/C [34]: 2.01%

SMILES: COc1cccc2c1C(=O)c1c(O)c3c(c(O)c1C2=O)CC(O)(C(=O)CO)CC3OC1CC(N)C(O)C(C)O1 (stereo unspecified) + CNC(=O)c1ccc(Nc2nc(OC3CCCC3)c3c(-c4ccc5nc(C)oc5c4)c[nH]c3n2)c(OC)c1
- IC50 (second compound 0.0316 µM): 185 nM
- IC50 (second compound 0.1 µM): 159 nM
- IC50 (second compound 0.316 µM): 102 nM
- IC50 (second compound 1 µM): 31.7 nM
- IC50 (second compound 3.16 µM): < 31.6 nM
- IC50 (second compound 10 µM): < 31.6 nM
- viability, T/C [1]: 86.6%
- viability, T/C [2]: 64.8%
- viability, T/C [3]: 37%
- viability, T/C [4]: 16.4%
- viability, T/C [5]: 6.4%
- viability, T/C [6]: 1.62%
- viability, T/C [7]: 86.8%
- viability, T/C [8]: 64.7%
- viability, T/C [9]: 27.8%
- viability, T/C [10]: 16%
- viability, T/C [11]: 6.66%
- viability, T/C [12]: 1.48%
- viability, T/C [13]: 80.4%
- viability, T/C [14]: 51.2%
- viability, T/C [15]: 15.9%
- viability, T/C [16]: 10.4%
- viability, T/C [17]: 1.13%
- viability, T/C [18]: 1.75%
- viability, T/C [19]: 50.1%
- viability, T/C [20]: 20.2%
- viability, T/C [21]: 6.31%
- viability, T/C [22]: 2.71%
- viability, T/C [23]: 1.6%
- viability, T/C [24]: 1.45%
- viability, T/C [25]: 37.1%
- viability, T/C [26]: 11.2%
- viability, T/C [27]: 3.77%
- viability, T/C [28]: 1.91%
- viability, T/C [29]: 1.71%
- viability, T/C [30]: 1.85%
- viability, T/C [31]: 31.5%
- viability, T/C [32]: 10.5%
- viability, T/C [33]: 3.98%
- viability, T/C [34]: 1.91%
- viability, T/C [35]: 1.68%
- viability, T/C [36]: 2.07%
